According to patent US20100204136A1, “USE OF A PEPTIDE AS A THERAPEUTIC AGENT” (priority 2007, published 2010):

Assays:
[1] = tested on: HIV-1IIIB; assay: HIV-1 antiviral assay (CPE reduction, MTS); format: cell-based; conditions: peptide 10 micrograms per ml; 6 days post-infection
[2] = tested on: CEM-SS cells; assay: Cytotoxicity in HIV-1 assay (MTS cell viability); conditions: peptide 10 micrograms per ml
[3] = tested on: HepG2-2.2.15 cells; assay: Cytotoxicity in HBV assay (dye uptake cell viability); format: cell-based; conditions: test peptide 10 micrograms per ml
[4] = tested on: MRC-5 cells; conditions: human, 6 days
Method: For cytotoxicity testing, MRC-5 cells were seeded at 2,500 cells/well in 96 well plates using growth medium. […] The following day, peptide was added and tested in duplicates. After a 6 days incubation period, cell viability was measured using CellTiter 96 Solution (Promega). Plates were incubated for additional 4 hours at 37° C. Adhesive plate sealers were used in place of lids, the sealed plates were inverted several times to mix the soluble formazan product and the plate was read spectrophotometrically at 490/560 nm with a Molecular Devices Vmax plate reader.

Cc1cn([C@H]2C[C@H](N=[N+]=[N-])[C@@H](CO)O2)c(=O)[nH]c1=O [AZT]
% CPE reduction in HIV-1 infected CEM-SS cells [1]: 99% | % Cell viability [2]: 97%

Nc1ccn([C@@H]2CS[C@H](CO)O2)c(=O)n1 [Compound 3TC]
% Cell viability [3]: 95.8%

Nc1nc(O)c2ncn(COC(CO)CO)c2n1 [Ganciclovir]
% Cell viability [4]: 100%
